Active and inactive are the calls of the source.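 Rule for the calls: active = half-maximal concentration for changing protein binding to DNA, from the fitted dose curve, below 10 micromolar; inactive = the rest.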
Biological target: Nuclear receptor subfamily 1 group D member 1 (Homo sapiens) (UniProt P20393)
Assay: Rev-erbα–DNA interaction modulators – biochemical, FITC-DNA, fluorescence polarization, dose response (AID 1259321)
Conditions: Rev-erb alpha-FITC-DNA binding

Sequence of Nuclear receptor subfamily 1 group D member 1 (Homo sapiens) (P20393 whole entry, looked up): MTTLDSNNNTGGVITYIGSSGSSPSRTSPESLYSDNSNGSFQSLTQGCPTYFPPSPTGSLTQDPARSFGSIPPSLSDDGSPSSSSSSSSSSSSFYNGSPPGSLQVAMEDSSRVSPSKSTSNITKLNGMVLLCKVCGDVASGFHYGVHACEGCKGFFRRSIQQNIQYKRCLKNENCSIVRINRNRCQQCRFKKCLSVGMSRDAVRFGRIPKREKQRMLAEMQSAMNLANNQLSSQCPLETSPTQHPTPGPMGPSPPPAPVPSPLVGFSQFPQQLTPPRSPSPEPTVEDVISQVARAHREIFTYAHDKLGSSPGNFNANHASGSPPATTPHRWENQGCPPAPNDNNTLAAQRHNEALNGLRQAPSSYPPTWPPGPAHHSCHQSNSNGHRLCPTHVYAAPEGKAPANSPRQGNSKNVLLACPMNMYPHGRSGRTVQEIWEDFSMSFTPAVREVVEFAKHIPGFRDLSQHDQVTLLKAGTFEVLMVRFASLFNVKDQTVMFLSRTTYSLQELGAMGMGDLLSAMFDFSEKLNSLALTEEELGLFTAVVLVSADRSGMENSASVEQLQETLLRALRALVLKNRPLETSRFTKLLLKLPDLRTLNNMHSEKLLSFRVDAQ

SMILES | IC50
CCc1cc2c(C)ccc(C)c2nc1SCC(=O)Nc1c[nH]c(=O)[nH]c1=O | inactive
CN1/C(=C\C=C2/C(=O)Oc3ccccc3C2=O)C(C)(C)c2ccccc21 | 4.74 µM
COc1cccc(CNC(=O)C[C@H]2CC[C@H]3[C@@H](COc4ccc(NC(=O)c5cccs5)cc4C(=O)N3C)O2)c1 | 7.17 µM
COc1cc(C(=O)Nc2nc(-c3cc(C)ccc3C)c(C)s2)ccc1OCC(=O)Nc1ccc(F)cc1 | inactive
COc1ccc(-n2nc(C(=O)NCC(=O)NCc3ccc(F)cc3)c3ccccc3c2=O)cc1OC | inactive
O=C(Nc1ccccc1)c1cc2c(=O)c3ccccc3oc2nc1C(F)(F)F | 6.94 µM
CCC(=O)c1cn(CC(=O)Nc2ccccc2Cl)c2ccccc12 | 3.98 µM
CSc1nnc(N2C(=O)C(O)=C(C(=O)c3ccco3)C2c2cccc(Cl)c2)s1 (stereo unspecified) | inactive
COc1nc(-c2ccccc2)ccc1-c1noc(-c2cccs2)n1 | > 40 µM (inactive)
O=C(Nc1nnc(C2CCCCC2)s1)c1ccc(Br)s1 | inactive
COc1cc2c3nnc(-c4ccc(F)cc4)c-3cn(Cc3ccccc3F)c2cc1OC | 1.98 µM
CC(C)c1nc2sc3c(SCC(N)=O)ncnc3c2c2c1CCC2 | 3.43 µM
COc1cc2c(cc1OC)CN(C(=O)CSc1nc(N)c(C#N)cc1C#N)CC2 | inactive
Cc1cc(C)n2nc(-c3ccc(Cl)cc3)cc2n1 | 1.64 µM
O=C(NCc1ccccn1)c1ccc(Cn2c(=S)[nH]c3ccc(Br)cc3c2=O)cc1 | 2.63 µM
N#Cc1c(-c2cccs2)cc(C2CC2)nc1SCC(N)=O | 1.35 µM
COc1ccc(Cl)cc1CC1(C)C(=O)Nc2ccc(-c3ccccc3OC)cc21 (stereo unspecified) | 3.44 µM
O=c1cc(-c2ccccc2Cl)oc2c(NS(=O)(=O)c3cccs3)ccc(O)c12 | inactive
CC1CC1C(=O)Nc1nc(-c2cccs2)c(-c2cccs2)s1 (stereo unspecified) | 5.22 µM
CCc1ccc(NC(=O)CSc2nnc(-c3n[nH]c4ccccc34)n2-c2ccccc2)cc1 | 2.64 µM
O=c1c2ccccc2[nH]c(=S)n1Cc1ccc2c(c1)OCO2 | 2.5 µM
Cc1cccc(N2C(=O)c3cccc4c(N)ccc(c34)C2=O)c1 | 6.19 µM

SMILES | IC50
N#CCCN(CCC#N)S(=O)(=O)c1ccc(C(=O)Nc2nc(-c3ccccc3)c(C(=O)c3ccccc3)s2)cc1 | > 40 µM (inactive)
COc1ccc(C(=O)Nc2ccccc2-c2nnn(CC(N)=O)n2)cc1 | inactive
C=CCn1cc(/C=C/c2cc[n+](C)cc2)c2ccccc21 | > 40 µM (inactive)
CN1C(=O)C(=Cc2ccc(N3CCOCC3)o2)C(=O)N(C)C1=O | 1.36 µM
Cc1cc(C)cc(N2CC(O)=C(c3nc4ccccc4c(=O)[nH]3)C2=N)c1 | 2.99 µM
COc1ccc(NC(=O)NNC(=O)c2cc3ccccc3cc2O)cc1 | 9.78 µM
COc1ccc(Br)cc1-c1nc2c(c(=O)[nH]c(=O)n2Cc2ccccc2)n1C | inactive
c1ccc(N(c2ccccc2)c2nc(N3CCCC3)nc(-n3ccnc3)n2)cc1 | 1.14 µM
CCOCCCn1c(=S)[nH]c2cc(C(=O)NCCc3ccccc3)ccc2c1=O | 3.56 µM
Cc1cccc(C)c1NC(=O)COc1ccccc1C(=O)Nc1ccc(Br)cn1 | 4.34 µM
COc1ccc(C(=O)COC(=O)c2cc(=O)[nH]c3ccccc23)c(OC)c1 | inactive
Cc1sc2nc(SCC(=O)NCc3ccco3)n(CCc3ccccc3)c(=O)c2c1C | > 40 µM (inactive)
O=c1ccc(-c2ccc(S(=O)(=O)N3CCN(c4cccc(Cl)c4)CC3)o2)n[nH]1 | 1.9 µM
CCN1C(=O)CSC1=NC1C2CC3CC(C2)CC1C3 (stereo unspecified) | 4.66 µM
O=c1c2ccccc2sc2ccc(Cl)cc12 | 3.38 µM
COC(=O)c1ccc(CSc2ncnc3c2oc2ccccc23)o1 | 2.73 µM
CCOC(=O)CSc1nc2cc3c(cc2cc1C#N)OCO3 | > 40 µM (inactive)
CCOc1ccccc1-c1nc(-c2ccc(NC(=O)Cc3ccc(OC)cc3)cc2)no1 | 6.52 µM
COc1cccc(Nc2nc(-c3ccccc3O)nc3ccccc23)c1 | 9.08 µM
CCN(CC)C(=O)CSc1nc(C)cc(-c2cccs2)c1C#N | 5.91 µM
CC1(Cc2ccccc2Cl)C(=O)Nc2ccc(OC(F)(F)F)cc21 (stereo unspecified) | 6.25 µM
O=C(O)CSc1c2ccccc2cc2ccccc12 | > 40 µM (inactive)

SMILES | IC50
Cn1cc(/C=C/c2cc[n+](C)cc2)c2cc(Cl)ccc21 | > 40 µM (inactive)
O=C(NCc1cc(C(F)(F)F)ccc1Cl)c1cccc2c1C(=O)c1ccc(Cl)cc1S2(=O)=O | 4.22 µM
CCN1/C(=C/c2ccc3cccc(C)c3[n+]2CC)Sc2ccccc21 | 2.04 µM
O=C(CSc1nnc(-c2cccs2)o1)c1ccc2c(c1)OCO2 | inactive
CCOC(=O)c1c(-c2ccccc2)csc1NC(=O)/C(C#N)=C/c1ccc(O)c(OC)c1 | 7.23 µM
COC1C(CO)OC(n2c3c(Cl)cccc3c3c4c(c5c6cccc(Cl)c6[nH]c5c32)C(=O)NC4=O)C(O)C1O (stereo unspecified) | inactive
COc1ccc(C(=O)NC(=S)Nc2ccc3[nH]c(=O)[nH]c3c2)c(OC)c1 | > 40 µM (inactive)
Cc1cc(Br)ccc1NC(=O)c1sc2ncn(CC(=O)N3CCN(c4ccccn4)CC3)c(=O)c2c1C | 5.34 µM
CC(C)n1cc(/C=C/c2cc[n+](C)cc2)c2ccccc21 | inactive
CCOC(=O)c1c(NC(=O)C2CCCN(S(=O)(=O)c3ccccc3)C2)sc2c1CCCC2 (stereo unspecified) | 3.46 µM
Cc1ccc(Sc2cnc3ccccc3n2)cc1 | inactive
Cn1c(N)c(C(=O)CSc2nn(-c3ccc(F)cc3)c(=S)s2)c(=O)n(C)c1=O | > 40 µM (inactive)
CCSc1nnc(-c2ccc(Cl)cc2)c2ccccc12 | 7.11 µM
Cn1c(SCC(=O)c2ccc3c(c2)Cc2ccccc2-3)nnc1-c1ccccc1 | 2.24 µM
Cc1cccc2cc(C#N)c(SCC#N)nc12 | > 40 µM (inactive)
N#Cc1ccsc1NC(=O)COC(=O)c1cc(Br)ccc1O | inactive
Cc1cc(C)c2cc(C#N)c(SCC(=O)Nc3cc(C)on3)nc2c1 | 7.32 µM
CCCCN1C(=O)/C(=C/C=C2/CC(C)(C)CN2C)SC1=S | > 40 µM (inactive)
CCCCOC(=O)c1cc(C)nc2ccc(Br)cc12 | inactive
CN(C)c1ccc(N=Nc2ccccc2C(=O)OCC(=O)N2CCCC2)cc1 | 0.527 µM
Cc1cccc(NC(=O)C2CCCN(S(=O)(=O)c3cccc4nsnc34)C2)c1 (stereo unspecified) | 2.17 µM
CCOC(=O)c1cc2c(=O)c3ccccc3oc2nc1C | > 40 µM (inactive)

SMILES | IC50
C=CCn1c(SCCNC(C)=O)nc2cc(-c3ccccc3)sc2c1=O | inactive
O=C(CSc1nnnn1-c1ccc2c(c1)OCCO2)c1cccc2c1OCCO2 | 2.98 µM
CC1(Cc2ccccc2OC(F)(F)F)C(=O)Nc2ccc(OC(F)(F)F)cc21 (stereo unspecified) | 4.19 µM
Cn1c(=O)c(NCCO)c2c3c(cccc31)C(=O)c1ccccc1-2 | 3.63 µM
COc1ccc(-c2nn(C)c3sc(C(=O)NCc4ccco4)cc23)cc1OC | > 40 µM (inactive)
O=C(Nc1ccc2c(c1)C(=O)NC2=O)c1cc(Cl)ccc1Cl | inactive
COc1ccccc1C(=O)Nc1nnc(-c2ccc(F)cc2)s1 | 3.13 µM
O=c1ccc(-c2ccc(S(=O)(=O)N3CCN(c4ccccc4)CC3)o2)n[nH]1 | > 40 µM (inactive)
Cc1ccc2[nH]cc(/C=C/c3cc[n+](C)cc3)c2c1 | > 40 µM (inactive)
CCOc1ccc(N=Nc2c(=O)[nH]n3c(=O)cc(C)[nH]c23)cc1 | > 40 µM (inactive)
Cc1ccc(C(=O)Nc2cccc(C(F)(F)F)c2)cc1NC(=O)c1nccn1C | 6.88 µM
CCc1ccc(-c2nc(NC(=O)c3ccc(OCC(=O)Nc4ccc(F)cc4)c(OC)c3)sc2C)cc1 | 9.3 µM
Cc1cccc2cc(C#N)c(SCC(=O)Nc3ccccc3N3CCOCC3)nc12 | inactive
COc1cc(/C=C(\C#N)c2nc3ccccc3o2)ccc1O | 2.91 µM
Cc1ccc(-n2nc3c(N4CCC(C(=O)NCCc5cccs5)CC4)nnc(C)c3c2C)cc1 | 6.89 µM
CC(C)(C)c1nc(SCC(=O)Nc2ccc3c(c2)OCCO3)c2ccccc2n1 | 0.88 µM
O=C(CN1CCCCC1)Nc1c2c(nc3ccccc13)N(c1ccccc1)CC2 | 3.26 µM
COc1ccc(Cn2ccc3ccc(-c4ccc5ccn(C(=O)c6ccccc6OC)c5c4)cc32)cc1 | > 40 µM (inactive)
N#Cc1ccccc1N1CCN(C(=O)C2CCN(c3ncnc4c3sc3cccc(F)c34)CC2)CC1 | 4.47 µM
Cc1ccccc1OCC(=O)Nc1ccc2c(c1)C(=O)c1ccccc1C2=O | > 40 µM (inactive)
O=C(Nc1ccc(O)c(-c2nc3ccccc3s2)c1)C1=COCCO1 | inactive
COc1ccc2[nH]c(C(=O)Nc3ccc(C)c(F)c3)cc2c1 | 0.647 µM

SMILES | IC50
N#CC(C#N)=C1C=C2C=C(N3CCOCC3)CCC2CC1 (stereo unspecified) | 4.31 µM
CCN(c1ccccc1C)S(=O)(=O)c1cc2c3c(c1)CCC(=O)N3CCC2 | > 40 µM (inactive)
CCCCN1C(=O)/C(=C/C=C2\SCCN2C)SC1=S | 3.18 µM
COc1ccc2c(C)cc(SCC(=O)NC3CCCCC3)nc2c1 | > 40 µM (inactive)
CCOC(=O)c1cc(C(=O)OCC)c2cc(Br)ccc2n1 | inactive
COc1ccccc1NC(=O)c1cnc(SCC(=O)NCCc2ccccc2)n(C)c1=O | 4.36 µM
CNC(=O)COc1ccccc1C(=O)Nc1ccc2c(c1)oc1ccccc12 | > 40 µM (inactive)
O=S(=O)(c1ccc2nc(N3CCN(c4ccccc4F)CC3)ccc2c1)N1CCCCC1 | 0.838 µM
N#Cc1c(N)nc(Sc2ccc(Cl)cc2)c(C#N)c1-c1ccccc1Cl | 6.32 µM
C=CCOc1ccc(C2C(C(=O)c3cccs3)=C(O)C(=O)N2c2nnc(C)s2)cc1 (stereo unspecified) | 3.99 µM
CCOc1ccc(NC(=O)CSc2nc(C3CC3)nc3ccccc23)cc1 | 5.32 µM
COc1ccc(C2C(C#N)=C(C)NC3=C2C(=O)c2ccccc23)cc1 (stereo unspecified) | inactive
O=C(COC(=O)c1cccnc1SCC(=O)NCc1ccccc1)NCc1ccccc1 | 4.11 µM
Cc1c(Br)ccc(NC(=O)Cn2nc(-c3cccs3)ccc2=O)c1C | 4.84 µM
COCCCNc1nc2c(-c3ccc(C)cc3)nnn2c2ccccc12 | 5.07 µM
COc1ccc(-c2cc(-c3cccnc3)c(C#N)c(N)n2)cc1 | 4.4 µM
Cc1sc2nc(SC(C)C)nc(N)c2c1C | 3.72 µM
CCOC(=O)c1c(NC(=O)COC(=O)CCOc2ccccc2C)sc(C(=O)NC)c1C | 0.831 µM

— PubChem BioAssay AID1259321 (Sanford-Burnham Center for Chemical Genomics, 2017)
